# From PubChem BioAssay (NCI)
#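 Five concentrations, 48 hours, 96-well plates. TGI: total growth inhibition.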
# Columns and labels:
# Experiment in all cases: DTP human tumour cell line panel, 48 h
# [1] = test system: HOP-62 NSCLC
# [2] = test system: EKVX NSCLC
# [3] = test system: MOLT-4 leukemia
# [4] = test system: NCI-H460 lung
# [5] = test system: SK-OV-3 ovarian
# [6] = test system: U251 CNS
# [7] = test system: HL-60(TB) leukemia
# [8] = test system: NCI-H226 lung
# [9] = test system: 786-0 renal
# [10] = test system: UACC-62 melanoma
# [11] = test system: IGROV1 ovarian
# [12] = test system: NCI-H23 lung
# [13] = test system: SK-MEL-5 melanoma
# [14] = test system: OVCAR-3 ovarian
# [15] = test system: HCT-15 colon
# [16] = test system: SF-539 CNS
# [17] = test system: SNB-19 CNS
# [18] = test system: SR leukemia
# [19] = test system: CCRF-CEM leukemia
# [20] = test system: M19-MEL melanoma
# [21] = test system: RXF 393 renal
# [22] = test system: KM12 colon
# [23] = test system: CAKI-1 renal
# [24] = test system: LXFL 529 NSCLC
# [25] = test system: HCC-2998 colon
# [26] = test system: SW-620 colon
# [27] = test system: OVCAR-5 ovarian
# [28] = test system: SK-MEL-2 melanoma
# [29] = test system: LOX IMVI melanoma
# [30] = test system: OVCAR-4 ovarian
# [31] = test system: K-562 leukemia
# [32] = test system: NCI-H522 lung
# [33] = test system: SN12C renal
# [34] = test system: HCT-116 colon
# [35] = test system: HT29 colon
# [36] = test system: DLD-1 colon
# [37] = test system: SK-MEL-28 melanoma
# [38] = test system: SF-295 CNS
# [39] = test system: DMS 114 small cell lung
# [40] = test system: RPMI-8226 leukemia
# [41] = test system: OVCAR-8 ovarian
# [42] = test system: M14 melanoma
# [43] = test system: HOP-92 NSCLC
# [44] = test system: A549 NSCLC
# [45] = test system: UACC-257 melanoma
# [46] = test system: UO-31 renal
# [47] = test system: SNB-78 CNS
# [48] = test system: SF-268 CNS
# [49] = test system: TK-10 renal
# [50] = test system: ACHN renal
# [51] = test system: HOP-18 NSCLC
# [52] = test system: MALME-3M melanoma
# [53] = test system: DMS 273 small cell lung
# [54] = test system: KM20L2 colon
# [55] = test system: SNB-75 CNS
# [56] = test system: COLO 205 colon
compound,measurement,setting,value
COc1ccc(/C=C(\C(C)=O)C(=O)Nc2ccccc2)cc1,TGI,[1],> 100 µM
same,TGI,[2],> 100 µM
same,TGI,[3],> 100 µM
same,TGI,[4],> 100 µM
same,TGI,[5],> 100 µM
same,TGI,[6],> 100 µM
same,TGI,[7],> 100 µM
same,TGI,[8],> 100 µM
same,TGI,[9],> 100 µM
same,TGI,[10],> 100 µM
same,TGI,[11],> 100 µM
same,TGI,[12],> 100 µM
same,TGI,[13],> 100 µM
same,TGI,[14],> 100 µM
same,TGI,[15],> 100 µM
same,TGI,[16],> 100 µM
same,TGI,[17],> 100 µM
same,TGI,[18],> 100 µM
same,TGI,[19],> 100 µM
same,TGI,[20],> 100 µM
same,TGI,[21],> 100 µM
same,TGI,[22],> 100 µM
same,TGI,[23],> 100 µM
same,TGI,[24],> 100 µM
same,TGI,[25],> 100 µM
same,TGI,[26],> 100 µM
same,TGI,[27],> 100 µM
same,TGI,[28],> 100 µM
same,TGI,[29],> 100 µM
same,TGI,[30],> 100 µM
same,TGI,[31],> 100 µM
same,TGI,[32],> 100 µM
same,TGI,[33],> 100 µM
same,TGI,[34],> 100 µM
same,TGI,[35],> 100 µM
same,TGI,[36],> 100 µM
same,TGI,[37],> 100 µM
same,TGI,[38],> 100 µM
same,TGI,[39],> 100 µM
same,TGI,[40],> 100 µM
same,TGI,[41],> 100 µM
same,TGI,[42],> 100 µM
same,TGI,[43],> 100 µM
same,TGI,[44],> 100 µM
same,TGI,[45],> 100 µM
same,TGI,[46],> 100 µM
same,TGI,[47],> 100 µM
same,TGI,[48],> 100 µM
same,TGI,[49],> 100 µM
same,TGI,[50],> 100 µM
same,TGI,[51],> 100 µM
same,TGI,[52],> 100 µM
COC(=O)C1=C(C(=O)OC)C2=S(SC3=C2CCCC3)S1 (stereo not drawn),TGI,[1],> 100 µM
same,TGI,[2],> 100 µM
same,TGI,[3],> 100 µM
same,TGI,[4],> 100 µM
same,TGI,[5],> 100 µM
same,TGI,[6],70.1 µM
same,TGI,[7],30.9 µM
same,TGI,[53],34.2 µM
same,TGI,[54],76.5 µM
same,TGI,[9],15.2 µM
same,TGI,[10],> 100 µM
same,TGI,[11],> 100 µM
same,TGI,[12],> 100 µM
same,TGI,[13],4.71 µM
same,TGI,[14],40.1 µM
same,TGI,[15],46.6 µM
same,TGI,[16],74 µM
same,TGI,[55],62.7 µM
same,TGI,[17],> 100 µM
same,TGI,[19],19.7 µM
same,TGI,[20],> 100 µM
same,TGI,[21],32.3 µM
same,TGI,[22],97.6 µM
same,TGI,[23],> 100 µM
same,TGI,[24],30 µM
same,TGI,[25],> 100 µM
same,TGI,[26],13 µM
same,TGI,[27],93.6 µM
same,TGI,[28],85.6 µM
same,TGI,[29],7.05 µM
same,TGI,[30],> 100 µM
same,TGI,[31],25.8 µM
same,TGI,[32],11.3 µM
same,TGI,[33],> 100 µM
same,TGI,[35],87.8 µM
same,TGI,[36],> 100 µM
same,TGI,[37],> 100 µM
same,TGI,[38],> 100 µM
same,TGI,[40],30.1 µM
same,TGI,[41],39.8 µM
same,TGI,[42],> 100 µM
same,TGI,[43],40.3 µM
same,TGI,[44],> 100 µM
same,TGI,[45],> 100 µM
same,TGI,[46],> 100 µM
same,TGI,[48],> 100 µM
same,TGI,[56],> 100 µM
same,TGI,[49],> 100 µM
same,TGI,[50],> 100 µM
same,TGI,[52],71.1 µM
COC1CCCCN1C(=O)c1ccccc1 (stereo not drawn),TGI,[3],> 25.3 µM
same,TGI,[5],> 25.3 µM
same,TGI,[6],> 25.3 µM
same,TGI,[7],> 25.3 µM
same,TGI,[54],> 25.3 µM
same,TGI,[8],> 25.3 µM
same,TGI,[9],> 25.3 µM
same,TGI,[10],> 25.3 µM
same,TGI,[11],> 25.3 µM
same,TGI,[12],> 25.3 µM
same,TGI,[13],> 25.3 µM
same,TGI,[14],> 25.3 µM
same,TGI,[15],> 25.3 µM
same,TGI,[55],> 25.3 µM
same,TGI,[17],> 25.3 µM
same,TGI,[18],> 25.3 µM
same,TGI,[21],> 25.3 µM
same,TGI,[22],> 25.3 µM
same,TGI,[23],> 25.3 µM
same,TGI,[25],> 25.3 µM
same,TGI,[26],> 25.3 µM
same,TGI,[27],> 25.3 µM
same,TGI,[28],> 25.3 µM
same,TGI,[29],> 25.3 µM
same,TGI,[30],> 25.3 µM
same,TGI,[31],> 25.3 µM
same,TGI,[33],> 25.3 µM
same,TGI,[34],> 25.3 µM
same,TGI,[37],> 25.3 µM
same,TGI,[39],> 25.3 µM
same,TGI,[42],> 25.3 µM
same,TGI,[43],> 25.3 µM
same,TGI,[44],> 25.3 µM
same,TGI,[46],> 25.3 µM
same,TGI,[47],> 25.3 µM
same,TGI,[48],> 25.3 µM
same,TGI,[49],> 25.3 µM
same,TGI,[50],> 25.3 µM
same,TGI,[52],> 25.3 µM
CCOC1c2cc(C(C)C)c(O)c(O)c2[C@@]23CCCC(C)(C)C2C1OC3=O (stereo partly drawn),TGI,[1],> 100 µM
same,TGI,[2],> 100 µM
same,TGI,[3],> 100 µM
same,TGI,[4],> 100 µM
same,TGI,[5],> 100 µM
same,TGI,[6],> 100 µM
same,TGI,[7],> 100 µM
same,TGI,[53],> 100 µM
same,TGI,[54],> 100 µM
same,TGI,[8],> 100 µM
same,TGI,[9],> 100 µM
same,TGI,[10],> 100 µM
same,TGI,[11],> 100 µM
same,TGI,[12],> 100 µM
same,TGI,[13],> 100 µM
same,TGI,[14],> 100 µM
same,TGI,[15],> 100 µM
same,TGI,[16],> 100 µM
same,TGI,[55],> 100 µM
same,TGI,[17],> 100 µM
same,TGI,[18],> 100 µM
same,TGI,[19],> 100 µM
same,TGI,[20],> 100 µM
same,TGI,[21],> 100 µM
same,TGI,[23],> 100 µM
same,TGI,[24],> 100 µM
same,TGI,[25],> 100 µM
same,TGI,[26],> 100 µM
same,TGI,[27],> 100 µM
same,TGI,[28],> 100 µM
same,TGI,[29],> 100 µM
same,TGI,[31],> 100 µM
same,TGI,[32],98.6 µM
same,TGI,[33],> 100 µM
same,TGI,[34],> 100 µM
same,TGI,[35],> 100 µM
same,TGI,[36],> 100 µM
same,TGI,[37],> 100 µM
same,TGI,[38],> 100 µM
same,TGI,[39],> 100 µM
same,TGI,[40],> 100 µM
same,TGI,[41],> 100 µM
same,TGI,[42],> 100 µM
same,TGI,[44],> 100 µM
same,TGI,[45],> 100 µM
same,TGI,[46],> 100 µM
same,TGI,[47],> 100 µM
same,TGI,[48],> 100 µM
same,TGI,[56],> 100 µM
same,TGI,[49],> 100 µM
same,TGI,[50],> 100 µM
same,TGI,[52],> 100 µM
